Results from PubChem BioAssay (NCI).
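Five compound concentrations were applied to cells in 96-well plates for 48 hours; endpoints were derived by simple linear interpolation of the resulting dose-response curve. The concentration for full growth arrest is given as TGI.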

Experiments:
Assay in all cases: NCI-60 cell line screen, 48 h
[1] = system: SF-268 CNS
[2] = system: CAKI-1 renal
[3] = system: UACC-257 melanoma
[4] = system: RXF 393 renal
[5] = system: MOLT-4 leukemia
[6] = system: SK-MEL-2 melanoma
[7] = system: HOP-92 NSCLC
[8] = system: IGROV1 ovarian
[9] = system: HCT-116 colon
[10] = system: MCF7 breast
[11] = system: NCI-H460 lung
[12] = system: EKVX NSCLC
[13] = system: OVCAR-5 ovarian
[14] = system: SW-620 colon
[15] = system: SK-MEL-5 melanoma
[16] = system: CCRF-CEM leukemia
[17] = system: SK-MEL-28 melanoma
[18] = system: SNB-75 CNS

Row | Compound | TGI [1] [µM] | TGI [2] [µM] | TGI [3] [µM] | TGI [4] [µM] | TGI [5] [µM] | TGI [6] [µM] | TGI [7] [µM] | TGI [8] [µM] | TGI [9] [µM] | TGI [10] [µM] | TGI [11] [µM] | TGI [12] [µM] | TGI [13] [µM] | TGI [14] [µM] | TGI [15] [µM] | TGI [16] [µM] | TGI [17] [µM] | TGI [18] [µM]
1 | O=c1[nH]ncc2[nH]c3c(c12)CCCc1ccccc1-3 | > 100 | > 100 | > 100 | 41.9 | > 100 | > 100 | > 100 | > 100 | > 100 | > 100 | > 100 | 51.7 | > 100 | > 100 | > 100 | > 100 |  | 
2 | O=C(Nc1ccccc1)N1CC(CN2CCN(c3ccccc3)CC2)OC1=O (centres undefined) | > 100 | > 100 | > 100 | > 100 | > 100 | > 100 | > 100 | > 100 | > 100 | > 100 | > 100 | > 100 | > 100 | > 100 | > 100 | > 100 | > 100 | 
3 | COc1cc2c(cc1OC)[C@]1(O)C(=O)c3ccc4c(c3O[C@@H]1CO2)C[C@H](C(C)(C)O)O4 |  |  | > 100 | > 100 | > 100 | > 100 | > 100 | > 100 | > 100 |  | > 100 | > 100 | > 100 | > 100 |  | > 100 | > 100 | > 100
4 | CSc1ccc2c(cc1=O)C(NC(=O)c1cc(O)c(OC(=O)O)c(O)c1)CCc1cc(O)c(O)c(O)c1-2 (centres undefined) | 43 | 41.9 | > 90 | > 90 | 35.6 | > 90 | 51.4 | 37.7 | 29.1 |  | 49.1 | 38.8 | > 9 | 29.3 | 29.1 | > 90 | 56.2 | > 90
5 | CN1C(=O)c2cccc3c([N+](=O)[O-])ccc(c23)C1=O | 23.5 | 5.17 | 21.6 | 8.61 | 28.2 | 24.8 | 19.9 | 9.43 | 18.9 |  | 11.7 | 29.4 | 13.4 | 6.12 | 32.6 | 39.5 | 32.9 | 25.1
6 | CC1=CC(=O)c2cccc(O)c2C1=O | 14.6 | 3.29 | 3.36 | 3.36 | > 28.3 | 4.57 | 3.29 | 26 | 3.49 |  | 18.9 | 8.68 | 14.8 | 4.08 | 3.29 | 14.7 | 7.81 | 18
7 | O=c1oc2ccccc2c(O)c1C(c1ccc([N+](=O)[O-])cc1)c1c(O)c2ccccc2oc1=O | > 100 | > 100 | > 100 |  | > 100 | > 100 | > 100 | > 100 | > 100 |  | > 100 | > 100 |  | > 100 | > 100 | > 100 | > 100 | > 100
8 | C/C(=N\O)C(CN(C)C)C(c1ccccc1)c1c(O)c2ccccc2oc1=O (centres undefined) | > 100 | > 100 | > 100 | > 100 | > 100 | > 100 | > 100 | > 100 | > 100 |  |  | > 100 | > 100 | > 100 | > 100 | > 100 | > 100 | > 100
9 | O=C(Cc1ccccc1)NN1C(=O)C(Cl)C1c1cc(Br)cc(Br)c1O (centres undefined) | 43.3 | 78.5 | 39.4 | 40.4 | 13.2 | 36.6 |  | 58.9 | 16 |  | 22.4 | 68.1 | 38.5 | 30.5 | 29.6 | 24.1 | 35.3 | 56.1
10 | COC(=O)C(=O)C(C(=O)C(=O)Nc1ccc([N+](=O)[O-])cc1C#N)c1nc2ccc([N+](=O)[O-])cc2[nH]c1=O (centres undefined) | > 100 | > 100 | > 100 | > 100 | > 100 | > 100 | > 100 |  | > 100 |  | > 100 | > 100 | > 100 | > 100 |  | > 100 |  | > 100
11 | CCCN(CCC)C(=O)Cc1c2n(c3ccccc13)CCCc1ccccc1-2 | 28.5 | 28.4 | 27 | 22.4 | 32.9 | 25.8 | 14.7 |  | 26.3 |  | 29.3 | 28.5 |  | 30.2 | 27.4 | 37.2 | 29.9 | 24.4
12 | CNC(=O)OC(C)CN1c2ccccc2Sc2ccccc21 (centres undefined) | > 100 | > 100 | > 100 | > 100 | > 100 |  | > 100 | > 100 | > 100 | > 100 | > 100 | > 100 | > 100 | > 100 | > 100 | > 100 | > 100 | 
13 | O=c1[nH]nc2c3n[nH]c(=O)n3c3ccccc3n12 | > 100 | > 100 | > 100 | > 100 | > 100 | > 100 | > 100 | > 100 | > 100 |  | > 100 | > 100 | > 100 | > 100 | > 100 | > 100 | > 100 | > 100
14 | Nc1nonc1-c1noc(-c2nonc2N)[n+]1[O-] | > 100 | 51.6 | > 100 | 51.1 | > 100 | > 100 | > 100 | > 100 | > 100 | > 100 | > 100 | 82.8 | > 100 | 79.2 | > 100 | 32.8 | > 100 | 
15 | O=c1cc2oc3ccc4ccccc4c3cc-2c(=O)[nH]1 | 28.4 | 28.8 | 30.6 |  | 8.02 | 31.6 |  | 27.4 | 31.2 | 38.5 | 53.1 | 33.8 | 32.4 | 5.3 | 29.3 | 2.6 | 32.7 | 
16 | CNC(=S)N/N=C(\C)c1ccc(OC)cc1O | > 100 | > 100 | > 100 | > 100 | > 100 | > 100 | > 100 | > 100 | > 100 |  | > 100 | > 100 | > 100 | > 100 | > 69.5 | > 100 | > 100 | > 100
17 | COc1ccc(-n2c(C)nc3ccc(N=Cc4ccccc4)cc3c2=O)cc1 | > 100 | > 100 | > 100 | > 100 | > 100 |  |  | > 100 | > 100 | > 100 | > 100 | > 100 | > 100 | > 100 | > 100 |  | > 100 | > 100
18 | CCC(=O)NCC1(c2c[nH]c3ccccc23)SCCS1 | > 100 | > 100 | > 100 |  | > 100 | > 100 | > 100 | > 100 | > 100 |  | > 100 | > 100 | > 100 | > 100 | > 100 | > 100 | > 100 | > 100
19 | C=C(Cl)C(Br)(CCl)CCC(Cl)C(C)C (centres undefined) (tested in a mixture with another compound) | 3.53 | 7.54 | 3.27 | 3.93 | 48 | 2.97 | 3.46 | 3.73 | 3.92 |  | 3.42 | 29.6 | 6.69 | 2.96 | 3.9 | > 100 | 3.21 | 2.35
20 | O=C1c2ccccc2C(=O)N1C/C=N/NS(=O)(=O)c1ccc(Cl)cc1 | > 100 | > 100 | > 100 |  | > 100 | > 100 |  | > 100 | > 100 |  | > 100 | > 100 |  | > 100 | > 100 | > 100 |  | > 100
21 | CCOC(=O)NC(=O)c1cn(-c2ccc(CCOC(=O)CCCCCCCCC(=O)OCCc3ccc(-n4cc(C(=O)NC(=O)OCC)c(=O)[nH]c4=O)cc3)cc2)c(=O)[nH]c1=O | > 100 |  | > 100 | > 100 | > 100 | > 100 | 88.7 | > 100 | > 100 |  | > 100 | > 100 | > 100 | > 100 | > 100 | > 100 | > 100 | 
22 | CCN(CC)CCNC(=O)c1ccccc1Nc1c(Cl)cccc1Cl | 34.7 |  | 29 | 27.9 | 31.2 |  |  | 36.1 | 25.7 |  | 16 | 26.6 | 20.4 | 29.6 | 24.2 | 35.2 | 33 | 23.8
23 | CN(C)CC1CCC(CN(C)C)C1=NO (centres undefined) | > 100 | > 100 | > 100 | > 100 | > 100 |  | > 100 | > 100 | > 100 |  | > 10 | > 100 | > 100 | > 100 | > 100 | > 100 | > 100 | > 10
24 | CN1C(=O)NC2(O)c3ccccc3C(=O)C12O (centres undefined) | > 100 | > 100 | > 100 |  | > 100 | > 100 | > 100 | > 100 | > 100 |  | > 100 | > 100 | > 100 | > 100 |  | > 100 | > 100 | > 100
25 | Cc1nnc2nc(-c3ccc(Cl)cc3Cl)cc(-c3ccc(Cl)cc3)n12 | > 100 | > 100 | > 100 |  | 96 |  | 37.7 |  | > 100 | > 100 | > 100 |  | > 100 | > 100 | > 100 | > 100 | 40.8 | 
26 | O=C(c1cccs1)N(C(=S)OCc1ccccn1)c1ccccc1 | > 100 | > 100 | > 100 | > 100 | > 100 | > 100 |  | > 100 | > 100 | > 100 | > 100 | 70 | > 100 | > 100 | > 100 | > 100 | > 100 | 
27 | CC(=O)C1CC2(c3ccccc3)C(=O)c3ccccc3N2O1 (centres undefined) | > 100 |  | > 100 | > 100 | > 100 |  | > 100 | > 100 | > 100 |  |  | > 100 |  | > 100 | > 100 | > 100 | > 100 | > 100
28 | COc1ccccc1OCc1nnc(SCC(=O)O)n1-c1ccccc1 | > 100 |  | > 100 |  | > 100 | > 100 | > 100 | > 100 | > 100 |  | > 100 | > 100 | > 100 |  | > 100 | > 100 | > 100 | > 100
29 | C/C(CC(=O)Nc1ccc(C)cc1)=N\NC(N)=S | > 100 |  | > 100 | > 100 | > 100 | > 100 | > 100 | > 100 | > 100 |  | > 100 | > 100 | > 100 | > 100 | > 100 | > 100 | > 100 | > 100
